Experimental data: patent US10894768B2, “Salt of (R)-(1-methylpyrrolidine-3-yl)methyl(3′-chloro-4′-fluoro-[1,1′-biphenyl]-2-yl)carbamate and crystal form thereof” (Dong-A St Co., Ltd., priority 2016, dated 2021)

How the values were obtained:
Type in all cases: physicochemical
[1] = Accelerated and stress stability of forms I, II and III; conditions: for Crystal form / Relative purity (%): oxalate; for Stability: under the accelerated and stress conditions
Protocol: X-ray powder diffraction (XRPD) pattern was obtained by means of a solid-phase detector of BRUKER D8 ADVANCE model using CuKα radiation at 1.54178 Å (40 kV, 40 mA). An analysis was performed through measurement at an angle 2θ in a range of 3° to 50° with a step size of 0.02°.
(§1) 4. Liquid Chromatography (HPLC)
(§2) Detector: Ultraviolet absorptiometer (detection wavelength of 244 nm)
(§3) Column: Waters, XBridge C18, 4.6*150 mm, 5 um
(§4) Column temperature: 40° C.
(§5) Mobile phase buffer: A 0.01M (NH4)HCO3 solution was prepared and adjusted to pH 10.5 by means of ammonia water.
(§6) Mobile phase A: Buffer:Acetonitrile=8:2
(§7) Mobile phase B: Acetonitrile
(§8) Sample solution: 1.0 mg/mL in 50% methanol
The accelerated test (accelerated condition: 40° C./RH 75%) and the stress test (stress condition: 60° C.) were performed on the form I of (R)-(1-methylpyrrolidine-3-yl)methyl(3′-chloro-4′-fluoro-[1,1′-biphenyl]-2-yl)carbamate oxalate prepared in Example 2 above and the form II of (R)-(1-methylpyrrolidine-3-yl)methyl(3′-chloro-4′-fluoro-[1,1′-biphenyl]-2-yl)carbamate oxalate and the form III of (R)-(1-methylpyrrolidine-3-yl)methyl(3′-chloro-4′-fluoro-[1,1′-biphenyl]-2-yl)carbamate oxalate prepared in Examples 3 and 9, wherein analysis results thereof were shown in Table 3.

[2] = Accelerated stability in the solid state (accelerated test, 40° C./RH 75%); conditions: for Property / Relative purity (%): 40° C./RH 75%; for Change in purity / Physical state: under the accelerated condition
Protocol: as §1, §2, §3, §4, §5, §6, §7, §8

[3] = Stress stability in a solid state (stress test)
Protocol: as §1, §2, §3, §4, §5, §6, §7, §8

Row | Compound | Crystal form ([1]; 40° C./RH 75% Week 1) | Relative purity (%) ([1]; 40° C./RH 75% Week 1) | Crystal form ([1]; 40° C./RH 75% Week 3) | Relative purity (%) ([1]; 40° C./RH 75% Week 3) | Crystal form ([1]; 60° C. Week 1) | Relative purity (%) ([1]; 60° C. Week 1) | Crystal form ([1]; 60° C. Week 3) | Relative purity (%) ([1]; 60° C. Week 3) | Crystal form ([1]; Early) | Relative purity (%) ([1]; Early) | Stability [1] | Property ([2]; Week 1) | Relative purity (%) ([2]; Week 1) | Property ([2]; Week 2) | Relative purity (%) ([2]; Week 2) | Property ([2]; Week 3) | Relative purity (%) ([2]; Week 3) | Property ([2]; Week 4) | Relative purity (%) ([2]; Week 4) | Property ([2]; initial) | further results
1 | CN1CC[C@@H](COC(=O)Nc2ccccc2-c2ccc(F)c(Cl)c2)C1.O=C(O)C(=O)O [form II, (R)-(1-methylpyrrolidine-3-yl)methyl(3′-chloro-4′-fluoro-[1,1′-biphenyl]-2-yl)carbamate oxalate] | form II | 99.83% | form II | 99.81% | form II | 99.85% | form II | 99.79% | form II | 99.87% | stable |  |  |  |  |  |  |  |  |  | 
2 | CN1CC[C@@H](COC(=O)Nc2ccccc2-c2ccc(F)c(Cl)c2)C1.O=C(O)C(=O)O [form III, (R)-(1-methylpyrrolidine-3-yl)methyl(3′-chloro-4′-fluoro-[1,1′-biphenyl]-2-yl)carbamate oxalate] | form III | 99.79% | form III | 99.80% | form III | 99.82% | form III | 99.79% | form III | 99.81% | stable |  |  |  |  |  |  |  |  |  | 
3 | CN1CC[C@@H](COC(=O)Nc2ccccc2-c2ccc(F)c(Cl)c2)C1.O=P(O)(O)O [Phosphate] |  |  |  |  |  |  |  |  |  |  |  | Dissolved | 98.3% | Dissolved | 98.3% | Dissolved | 98.4% | Dissolved | 98.4% | Solid | Relative purity (%) ([2]; initial): 98.4%; Change in purity [2]: do not show a change in purity; Physical state [2]: show a melting phenomenon; Property ([3]; 60° C., Week 1): Dissolved; Relative purity ([3]; 60° C., Week 1): 98.4/ %; Property ([3]; 60° C., Week 2): Dissolved; Relative purity ([3]; 60° C., Week 2): 98.4/ %; Property ([3]; RH 90%, Week 1): Dissolved; Relative purity ([3]; RH 90%, Week 1): 98.4/ %; Property ([3]; RH 90%, Week 2): Dissolved; Relative purity ([3]; RH 90%, Week 2): 98.4/ %; Property ([3]; initial): Solid; Relative purity ([3]; initial): 98.4/ %; Change in purity ([3]; under the stress condition): do not show a change in purity
4 | CN1CC[C@@H](COC(=O)Nc2ccccc2-c2ccc(F)c(Cl)c2)C1.O=C(O)C(=O)O [Oxalate, (R)-(1-methylpyrrolidine-3-yl)methyl(3′-chloro-4′-fluoro-[1,1′-biphenyl]-2-yl)carbamate oxalate] |  |  |  |  |  |  |  |  |  |  |  | Solid | 99.3% | Solid | 99.3% | Solid | 99.3% | Solid | 99.3% | Solid | Relative purity (%) ([2]; initial): 99.3%; Change in purity [2]: do not show a change in purity; Property ([3]; 60° C., Week 1): Solid; Relative purity ([3]; 60° C., Week 1): 99.3/ %; Property ([3]; 60° C., Week 2): Solid; Relative purity ([3]; 60° C., Week 2): 99.4/ %; Property ([3]; RH 90%, Week 1): Solid; Relative purity ([3]; RH 90%, Week 1): 99.3/ %; Property ([3]; RH 90%, Week 2): Solid; Relative purity ([3]; RH 90%, Week 2): 99.4/ %; Property ([3]; initial): Solid; Relative purity ([3]; initial): 99.3/ %; Change in purity ([3]; under the stress condition): do not show a change in purity; Physical state ([3]; under the stress condition): kept in an unmelted state
5 | CN1CC[C@@H](COC(=O)Nc2ccccc2-c2ccc(F)c(Cl)c2)C1.O=C(O)C(=O)O [form I, (R)-(1-methylpyrrolidine-3-yl)methyl(3′-chloro-4′-fluoro-[1,1′-biphenyl]-2-yl)carbamate oxalate] | form I | 99.55% | form I | 99.60% | form I | 99.71% | form I | 99.61% | form I | 99.66% | stable |  |  |  |  |  |  |  |  |  | 
6 | (R)-(1-methylpyrrolidine-3-yl)methyl(3′-chloro-4′-fluoro-[1,1′-biphenyl]-2-yl)carbamate citrate |  |  |  |  |  |  |  |  |  |  |  | Solid | 97.7% | Solid | 97.6% | Dissolved | 97.7% | Dissolved | 97.4% | Solid | Relative purity (%) ([2]; initial): 97.7%; Change in purity [2]: do not show a change in purity; Physical state [2]: show a melting phenomenon; Property ([3]; 60° C., Week 1): Dissolved; Relative purity ([3]; 60° C., Week 1): 97.8/ %; Property ([3]; 60° C., Week 2): Dissolved; Relative purity ([3]; 60° C., Week 2): 97.9/ %; Property ([3]; RH 90%, Week 1): Dissolved; Relative purity ([3]; RH 90%, Week 1): 97.7/ %; Property ([3]; RH 90%, Week 2): Dissolved; Relative purity ([3]; RH 90%, Week 2): 97.7/ %; Property ([3]; initial): Solid; Relative purity ([3]; initial): 97.7/ %; Change in purity ([3]; under the stress condition): do not show a change in purity
